According to article PMC8070745, “FEN1 Blockade for Platinum Chemo-Sensitization and Synthetic Lethality in Epithelial Ovarian Cancers” (Cancers, 2021):

What was measured:
A2780cis cells = experiment: Clonogenic assay, A2780cis; format: cell-based, human; settings: pre-treatment with importin β inhibitor, then cisplatin vs cisplatin only
Procedure: Clonogenic assay: In the clonogenic assay (colony formation assays), 32 cells/cm2 were seeded in 6-well plates and left at 37°C in a 5% CO2 atmosphere. Cisplatin (5µM) and/or FEN1i (10µM) and/or Importazole (5 µM, Selleckem, S8446 ) were added at the indicated concentrations and the plates were left at 37 °C in a 5% CO 2 atmosphere for 14 days. Later, the plates were washed with PBS, fixed and stained with a crystal violet, acetic acid and methanol solution and colonies were counted. […]

[1] = tested on: FEN1 nuclear localization in A2780cis cells; experiment: Confocal microscopy of FEN1 nuclear localization, A2780cis; format: cell-based, human; settings: pre-treatment with importin β inhibitor (5 µM) followed by cisplatin
Procedure: For PEO1 and PEO4 cells, the cells where keep in culture up to four weeks ([…]) until spheroids structures were formed.
To quantify cell viability, LIVE/DEAD Viability/Cytotoxicity Kit (L3224, Thermo Fisher Scientific) was used. Briefly, the spheroids were harvest by trypsinization, washed with PBS and centrifuge at 1000×g for 5 minutes. The light-protected cellular pellet in PBS was loaded with 0.1µM of Calcein-AM and 1 µM of Ethidium homodimer-1 for 20 minutes at room temperature. The samples were analysed on a Beckman-Coulter FC500 flow cytometer using a 495nm laser for excitation and a 515nm laser for emission data for Calcein AM and a 495nm laser for excitation and emission at 635nm for Ethidium Homodimer-1. In addition, Image J software was used to calculate spheroid diameter. Mean of three diagonal diameters was taken as diameter for each spheroid. At least 10 spheroids were measured. […]
Laboratories). Imaging was carried out using Leica SP2 confocal laser scanning microscope (CLSM) and analysed with ImageJ software (NIH, USA). For analysis a minimum of 100 cells per slide were counted.
On 3D structures, the spheroids were fixed with 4% paraformaldehyde for 30 minutes. […] Imaging was carried out using Leica SP2 confocal laser scanning microscope (CLSM) and analysed with ImageJ software (NIH, USA). […]

[2] = tested on: BRCA deficient germ-line or platinum-sensitive sporadic epithelial ovarian cancers; set-up: method as in PMID 22452356, PMID 27717299, PMID 28916367, PMID 27908594; settings: maintenance therapy in patients; cited from earlier work

Compound	effect on cisplatin sensitivity (A2780cis cells)	nuclear localization of FEN1 [1]	progression-free survival [2]
CC(Nc1nc(N2CCCC2)nc2ccccc12)c1ccccc1 (centres unmarked) [Importanzole]	re-sensitized these cells to cisplatin therapy	reduced nuclear localization of FEN1	
NC(=O)c1cccc2cn(-c3ccc([C@@H]4CCCNC4)cc3)nc12 [Niraparib]			substantially improves progression-free survival
O=C(c1cc(Cc2n[nH]c(=O)c3ccccc23)ccc1F)N1CCN(C(=O)C2CC2)CC1 [Olaparib]			substantially improves progression-free survival
CNCc1ccc(-c2[nH]c3cc(F)cc4c3c2CCNC4=O)cc1 [Rucaparib]			substantially improves progression-free survival
